Reference: patent US11076595B2, “1-(n,n-disubstituted carbamoyl) 4-(substituted sulfonyl)triazolin-5-one derivative, 4-(n,n-disubstituted carbamoyl) 1-(substituted sulfonyl)triazolin-5-one derivative, and herbicide containing said derivative as active ingredient” (HOKKO CHEMICAL INDUSTRY CO., LTD., priority 2017, dated 2021)

Legend:
Format in all cases: in vivo
crabgrass [1] = test: Test Example 14: herbicidal effect test by foliage treatment in upland field; conditions: 7 days after sowing, 120 g/10a, 14 days after treatment
How it was run: (§1)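 Emulsifiable concentrate, water-diluted, is applied post-emergence to 7-day-old sowings in field soil at 120 g active ingredient per 10 are. The weed suppression rate derives from average dry weights versus untreated controls, measured 14 days later.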

Chenopodium album [2] = test: as above; conditions: 7 days after sowing, 120 g/10a, 14 days after treatment
How it was run: as §1

crabgrass [3] = test: Test Example 13: herbicidal effect test by soil treatment in upland field; conditions: 120 g/10a, 14 days after treatment
Experimental: (§2) A pot having a size of 36 cm^2 was filled with field soil (alluvial soil) and after mixing the soil of the surface layer of 1 cm with 20 grains of each weed seed of crabgrass, Echinochloa crus-galli, Chenopodium album and Amaranthus viridis, the surface layer was pressed lightly. One day after the sowing, an emulsifiable concentrate prepared according to Formulation Example 15 by using the compound shown in Table 11 below was diluted with water, and the water-diluted formulation was sprayed on the soil surface at a ratio of 100 liter per 10 are. The application rate of the active ingredient, by conversion, corresponded to 120 g per 10 are. Fourteen Days after the formulation treatment, the herbicidal effect was evaluated by the same criteria as in Test Example 11.

Echinochloa crus-galli [4] = test: as above; conditions: 120 g/10a, 14 days after treatment
Experimental: as §2

Chenopodium album [5] = test: as above; conditions: 120 g/10a, 14 days after treatment
Experimental: as §2

Amaranthus viridis [6] = test: as above; conditions: 120 g/10a, 14 days after treatment
Experimental: as §2

Scirpus juncoides [7] = test: Test Example 12: herbicidal effect test by treatment during growing period in paddy field; conditions: 120 g/10a; treatment seven days after sowing in flooded paddy pot; assessed 14 days after treatment
How it was run: (§3)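 Growing-period treatment in flooded paddy pots: the diluted emulsifiable concentrate was dripped in at 120 g a.i. per 10 are seven days after seeding. Inhibition is expressed as percent reduction in dry weight versus untreated pots, measured 14 days later in duplicate.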

Lindernia pyxidaria [8] = test: as above; conditions: 120 g/10a; treatment seven days after sowing in flooded paddy pot; assessed 14 days after treatment
How it was run: as §3

Monochoria vaginalis [9] = test: as above; conditions: 120 g/10a; treatment seven days after sowing in flooded paddy pot; assessed 14 days after treatment
How it was run: as §3

Echinochloa crus-galli [10] = test: as above; conditions: 120 g/10a; treatment seven days after sowing in flooded paddy pot; assessed 14 days after treatment
How it was run: as §3

Echinochloa crus-galli [11] = test: Test Example 14: herbicidal effect test by foliage treatment in upland field; conditions: 7 days after sowing, 120 g/10a, 14 days after treatment
How it was run: as §1

Amaranthus viridis [12] = test: as above; conditions: 7 days after sowing, 120 g/10a, 14 days after treatment
How it was run: as §1

Scirpus juncoides [13] = test: Test Example 11: herbicidal effect test by soil treatment in paddy field; conditions: 120 g/10a active ingredient, 14 days after treatment
How it was run: (§4)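 Puddled paddy soil with N:P:K 17:17:17 fertilizer in Wagner pots; 30 seeds per species sown at 0–1 cm, flooded to about 3 cm, kept in a glass greenhouse. Water-diluted emulsifiable concentrate dripped in immediately after sowing at 120 g a.i. per 10 are. Suppression from dry weight versus untreated at 14 days.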

Lindernia pyxidaria [14] = test: as above; conditions: 120 g/10a active ingredient, 14 days after treatment
How it was run: as §4

Monochoria vaginalis [15] = test: as above; conditions: 120 g/10a active ingredient, 14 days after treatment
How it was run: as §4

Echinochloa crus-galli [16] = test: as above; conditions: 120 g/10a active ingredient, 14 days after treatment
How it was run: as §4

Compound	herbicidal effect, Crabgrass (crabgrass [1]) [%]	herbicidal effect, Chenopodium album (Chenopodium album [2]) [%]	herbicidal effect, Crabgrass (crabgrass [3]) [%]	herbicidal effect, Echinochloa crus-galli (Echinochloa crus-galli [4]) [%]	herbicidal effect, Chenopodium album (Chenopodium album [5]) [%]	herbicidal effect, Amaranthus viridis (Amaranthus viridis [6]) [%]	Weed suppression rate (%) Scirpus juncoides (Scirpus juncoides [7]) [%]	Weed suppression rate (%) Lindemia pyxidaria (Lindernia pyxidaria [8]) [%]	Weed suppression rate (%) Monochoria vaginalis (Monochoria vaginalis [9]) [%]	Weed suppression rate (%) Echinochloa crus-galli (Echinochloa crus-galli [10]) [%]	herbicidal effect, Echinochloa crus-galli (Echinochloa crus-galli [11]) [%]	herbicidal effect, Amaranthus viridis (Amaranthus viridis [12]) [%]	Weed suppression rate (%) Scirpus juncoides (Scirpus juncoides [13]) [%]	Weed suppression rate (%) Lindemia pyxidaria (Lindernia pyxidaria [14]) [%]	Weed suppression rate (%) Monochoria vaginalis (Monochoria vaginalis [15]) [%]	Weed suppression rate (%) Echinochloa crus-galli (Echinochloa crus-galli [16]) [%]
CC(C)N(C(=O)n1cnn(S(C)(=O)=O)c1=O)c1ccccc1 [Compound 11-1]	90	80	90	80	80	90	90	80	80	90	80	90	90	80	80	90
CC(C)N(C(=O)n1cnn(S(C)(=O)=O)c1=O)c1cccc(F)c1F [Compound 11-11]	100	70	90	80	30	30	100	80	100	100	100	60	100	100	100	100
CC(C)N(C(=O)n1cnn(S(C)(=O)=O)c1=O)c1ccc(F)cc1F [Compound 11-12]	90	90	100	100	90	100	90	100	90	100	90	80	100	100	100	100
CC(C)N(C(=O)n1cnn(S(C)(=O)=O)c1=O)c1c(F)cccc1F [Compound 11-14]	100	30	100	100	60	70	100	80	80	100	100	30	90	100	80	100
CC(C)N(C(=O)n1cnn(S(=O)(=O)c2ccc(C(C)(C)C)cc2)c1=O)c1ccc(F)cc1F [Compound 11-682]	–	–	80	90	40	40	80	90	90	90	–	–	90	90	90	100
CCN(CC)C(=O)n1cnn(S(=O)(=O)c2ccccc2C(F)(F)F)c1=O [Compound 11-710]	–	–	80	100	60	40	40	40	40	80	–	–	40	40	40	70
CC(C)N(C(=O)n1cnn(S(=O)(=O)c2ccccc2C(F)(F)F)c1=O)c1ccc(F)cc1F [Compound 11-711]	–	–	90	100	50	50	60	70	70	60	–	–	90	90	90	90
CC(C)N(C(=O)n1cnn(S(=O)(=O)c2c(F)c(F)c(F)c(F)c2F)c1=O)c1ccc(F)cc1Cl [Compound 11-818]	–	–	100	100	60	60	100	80	100	100	–	–	100	100	100	100
CC(C)N(C(=O)n1cnn(S(=O)(=O)Cc2ccccc2)c1=O)c1ccc(F)cc1F [Compound 11-944]	–	–	90	90	0	0	90	90	90	90	–	–	90	100	100	90
CC(C)N(C(=O)n1cnn(S(=O)(=O)c2cccs2)c1=O)c1cccc(F)c1F [Compound 11-1021]	–	–	100	90	70	70	100	80	90	100	–	–	100	100	100	100
CC(C)N(C(=O)n1cnn(S(=O)(=O)c2cccs2)c1=O)c1c(F)cccc1F [Compound 11-1024]	–	–	100	70	60	60	90	80	90	100	–	–	80	80	70	100
